Results from US12370166B2, “Pentadecanoylcarnitine for treatment of conditions related to the quality of aging and longevity” (EPITRACKER, INC., priority 2021, dated 2025).
pEC50: −log10 of the molar value.

Columns and labels:
mitochondrial function = conditions: cited from earlier work
Cannabinoid receptor 2 = Cannabinoid receptor 2 (Homo sapiens, UniProt P34972); assay: Receptor-based pharmacological activity, agonist; type: biochemical; conditions: for pEC50: read-out: RC50 (EC50); for Pharmacological activity at cannabinoid receptor 2: at approximately 1 to 20 μM
Chain of Cannabinoid receptor 2 (P34972 whole entry): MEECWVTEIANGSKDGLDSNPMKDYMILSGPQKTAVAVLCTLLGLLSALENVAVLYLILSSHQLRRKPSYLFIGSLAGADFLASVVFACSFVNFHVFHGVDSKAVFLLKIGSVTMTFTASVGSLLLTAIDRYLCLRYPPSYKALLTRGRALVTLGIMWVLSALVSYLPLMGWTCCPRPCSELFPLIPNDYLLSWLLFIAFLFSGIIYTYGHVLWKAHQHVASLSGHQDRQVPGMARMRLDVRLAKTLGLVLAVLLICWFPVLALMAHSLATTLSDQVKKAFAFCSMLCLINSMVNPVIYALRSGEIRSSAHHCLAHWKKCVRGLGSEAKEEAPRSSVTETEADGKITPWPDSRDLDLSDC
Procedure: (§1) Methods for this study have been previously described (Venn-Watson, S., Lumpkin, R., Dennis, E. A. Efficacy of dietary odd-chain saturated fatty acid pentadecanoic acid parallels broad associated health benefits in humans: could it be essential? Sci Rep 10:8161 (2020)). Significant activities of pentadecanoylcarnitine were those tagged as having maximum pharmacological activities that were greater than or equal to 70% that of the internal control between the concentrations of 1 to 20 μM. Significant pharmacological activities caused by pentadecanoylcarnitine were compared with results from the same assays using pentadecanoic acid (C15:0).

5-HT1A receptor = target: T1, 5-HT1A receptor (Homo sapiens, UniProt P08908); assay: Receptor-based pharmacological activity, agonist; type: biochemical; conditions: for pEC50: read-out: RC50 (EC50)
T1 sequence (P08908 1-422): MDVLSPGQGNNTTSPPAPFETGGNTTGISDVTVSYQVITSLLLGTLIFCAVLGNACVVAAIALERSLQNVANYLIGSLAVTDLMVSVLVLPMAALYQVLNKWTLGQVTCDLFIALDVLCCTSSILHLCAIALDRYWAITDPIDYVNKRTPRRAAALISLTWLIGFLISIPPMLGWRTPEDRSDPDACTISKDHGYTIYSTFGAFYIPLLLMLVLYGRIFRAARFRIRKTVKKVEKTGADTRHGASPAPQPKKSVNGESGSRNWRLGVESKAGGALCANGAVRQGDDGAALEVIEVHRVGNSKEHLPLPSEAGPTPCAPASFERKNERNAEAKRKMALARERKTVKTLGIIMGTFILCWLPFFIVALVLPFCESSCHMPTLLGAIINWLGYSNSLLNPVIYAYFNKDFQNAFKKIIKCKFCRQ
Procedure: as §1

Cannabinoid receptor 1 = Cannabinoid receptor 1 (Homo sapiens, UniProt P21554); assay: Receptor-based pharmacological activity, agonist; type: biochemical; conditions: for pEC50: read-out: RC50 (EC50); for Pharmacological activity at cannabinoid receptor 1: at approximately 1 to 20 μM
Chain of Cannabinoid receptor 1 (P21554 whole entry, species assumed): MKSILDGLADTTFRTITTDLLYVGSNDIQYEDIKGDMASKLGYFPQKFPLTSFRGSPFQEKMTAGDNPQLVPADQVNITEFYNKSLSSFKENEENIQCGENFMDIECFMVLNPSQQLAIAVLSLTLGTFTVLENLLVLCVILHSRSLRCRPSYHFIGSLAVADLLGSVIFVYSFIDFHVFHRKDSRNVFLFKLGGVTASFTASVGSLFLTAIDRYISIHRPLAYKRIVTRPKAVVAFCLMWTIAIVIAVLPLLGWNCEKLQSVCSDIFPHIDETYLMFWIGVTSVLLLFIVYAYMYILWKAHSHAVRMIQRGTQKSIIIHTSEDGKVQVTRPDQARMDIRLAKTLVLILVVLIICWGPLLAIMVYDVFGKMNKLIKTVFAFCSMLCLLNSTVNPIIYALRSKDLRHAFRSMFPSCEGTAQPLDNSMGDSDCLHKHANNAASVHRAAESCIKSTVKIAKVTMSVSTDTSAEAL
Procedure: as §1

5-HT1B receptor = 5-HT1B receptor (Homo sapiens, UniProt P28222); assay: Receptor-based pharmacological activity, agonist; type: biochemical; conditions: for pEC50: read-out: RC50 (EC50)
Chain of 5-HT1B receptor (P28222 whole entry): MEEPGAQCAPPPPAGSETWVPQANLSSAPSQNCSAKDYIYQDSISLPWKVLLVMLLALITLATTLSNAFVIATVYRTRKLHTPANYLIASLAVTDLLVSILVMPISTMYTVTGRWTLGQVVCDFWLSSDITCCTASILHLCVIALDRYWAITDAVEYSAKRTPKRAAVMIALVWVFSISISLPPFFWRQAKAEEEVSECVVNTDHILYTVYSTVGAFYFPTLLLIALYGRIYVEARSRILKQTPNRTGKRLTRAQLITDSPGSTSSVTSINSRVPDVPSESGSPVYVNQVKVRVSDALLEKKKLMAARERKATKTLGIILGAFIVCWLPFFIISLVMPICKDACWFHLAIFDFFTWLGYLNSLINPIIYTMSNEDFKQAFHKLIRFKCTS
Procedure: as §1

[1] = tested on: AMP-activated protein kinase (AMPK); conditions: cited from earlier work
red blood cell membranes = conditions: cited from earlier work
breast cancer cells = conditions: cited from earlier work
[2] = tested on: peroxisome proliferator-activated receptor (PPAR) α/δ; conditions: cited from earlier work
[3] = tested on: in vivo model of nonalcoholic fatty liver disease; conditions: daily supplementation over 11 weeks; cited from earlier work
[4] = tested on: diet-induced obese mice modeling type 2 diabetes; conditions: daily oral, approximately 12 weeks; cited from earlier work
[5] = tested on: human cell systems mimicking various disease states; conditions: cited from earlier work
CASM3C cell system = assay: Human primary cell phenotypic profiling, CASM3C cell system (cardiovascular inflammation, restenosis); type: cell-based; conditions: 6.7 μM stated for pentadecanoylcarnitine
Procedure: (§2) Methods for this human primary cell phenotypic profiling study were those previously described (Venn-Watson, S., Lumpkin, R., Dennis, E. A. Efficacy of dietary odd-chain saturated fatty acid pentadecanoic acid parallels broad associated health benefits in humans: could it be essential? Sci Rep 10:8161 (2020)). Significant activities of pentadecanoylcarnitine were those that were equal to or greater than 0.1|log 10| at 6.7 μM. Biomarkers with significant changes caused by pentadecanoylcarnitine were compared with results from the same study using pentadecanoic acid (C15:0).

HDF3CGF cell system = assay: Human primary cell phenotypic profiling, HDF3CGF cell system (fibrosis, chronic inflammation); type: cell-based; conditions: 6.7 μM stated for pentadecanoylcarnitine
Procedure: as §2

LPS cell system = assay: Human primary cell phenotypic profiling, LPS cell system (chronic inflammation, cardiovascular disease); type: cell-based; conditions: 6.7 μM stated for pentadecanoylcarnitine
Procedure: as §2

4H cell system = assay: Human primary cell phenotypic profiling, 4H cell system (autoimmunity, allergy, asthma); type: cell-based; conditions: 6.7 μM stated for pentadecanoylcarnitine, NS = not significant
Procedure: as §2

MyoF cell system = assay: Human primary cell phenotypic profiling, MyoF cell system (wound healing, matrix remodeling, fibrosis); type: cell-based; conditions: 6.7 μM stated for pentadecanoylcarnitine
Procedure: as §2

BE3C cell system = assay: Human primary cell phenotypic profiling, BE3C cell system (COPD, lung inflammation); type: cell-based; conditions: 6.7 μM stated for pentadecanoylcarnitine
Procedure: as §2

SAg cell system = assay: Human primary cell phenotypic profiling, SAg cell system (chronic inflammation, autoimmune disease); type: cell-based; conditions: 6.7 μM stated for pentadecanoylcarnitine
Procedure: as §2

KF3CT cell system = assay: Human primary cell phenotypic profiling, KF3CT cell system (dermatitis, psoriasis); type: cell-based; conditions: 6.7 μM stated for pentadecanoylcarnitine
Procedure: as §2

/IMphg cell system = assay: Human primary cell phenotypic profiling, /IMphg cell system (chronic inflammation, restenosis, cardiovascular disease); type: cell-based; conditions: 6.7 μM stated for pentadecanoylcarnitine
Procedure: as §2

[6] = Agonist, positive control CP 55940
[7] = Agonist, positive control Serotonin hydrochloride, 1 to 20 μM, read-out: Max Response (%) Compared to Positive Control
[8] = Agonist, positive control Serotonin hydrochloride
[9] = Agonist, positive control CP 55940, 1 to 20 μM
[10] = listed as pentadecenoyl carnitine
[11] = Agonist, positive control Serotonin hydrochloride, 1 to 20 μM

In the case of CCCCCCCCCCCCCCC(=O)O [Pentadecanoic acid (C15:0), Pentadecanoic acid], the “Effect on mitochondrial function” value (mitochondrial function) is given as “repair”, the Emax (Cannabinoid receptor 2; Agonist, positive control CP 55940, 1 to 20 μM, read-out: Max Response (%) Compared to Positive Control) is given as 22% and the pEC50 (Cannabinoid receptor 2; [6]) is given as less than 4.70. It also gave an Emax (5-HT1A receptor; [7]) of 0%, a pEC50 (5-HT1A receptor; [8]) of less than 4.70 and a pEC50 (Cannabinoid receptor 1; [6]) of less than 4.70. The Emax (Cannabinoid receptor 1; read-out: Max Response (%) Compared to Positive Control) was 25%, the Emax (5-HT1B receptor; [7]) was 0% and the pEC50 (5-HT1B receptor; [8]) was less than 4.70. The AMPK activity [1] was “activator”, the “Effect on stability of red blood cell membranes” value (red blood cell membranes) was “improve” and the “Effect on proliferation of breast cancer cells” value (breast cancer cells) was “decrease”. For the same compound, the “PPAR α/δ agonist activity” value [2] was “dual, partial”, the Anemia [3] was “attenuated” and the Cholesterol [3] was “lowered”. For the same compound, the Inflammation [3] was “lowered”, the Liver fibrosis [3] was “attenuated” and the Triglycerides [3] was “lowered”. For the same compound, the “Body weight gain compared to non-supplemented controls” value [4] was “lower”, the “Cholesterol compared to non-supplemented controls” value [4] was “lower” and the “Glucose compared to non-supplemented controls” value [4] was “lower”. For the same compound, the “Pro-inflammatory cytokines compared to non-supplemented controls” value [4] was “lower” and the “Properties in human cell systems mimicking various disease states” value [5] was “anti-inflammatory and antifibrotic properties”.

For CCCCCCCCCCCCCCC(=O)O[C@H](CC(=O)[O-])C[N+](C)(C)C [Pentadecanoylcarnitine, pentadecanoylcarnitine], the Proliferation change (CASM3C cell system) was “+0.10 log 10”, the MMP-1 biomarker change (HDF3CGF cell system) was −0.12 log 10 and the “Max Response (%) Compared to Positive Control” value (Cannabinoid receptor 2; [9]) was 106%. The pEC50 (Cannabinoid receptor 2; [6]) was 5.49, the “Pharmacological activity at cannabinoid receptor 2” value (Cannabinoid receptor 2) was “agonist” and the “Pharmacological activity at cannabinoid receptor 2” value (Cannabinoid receptor 2; [10]) was “fully activates”. The “Max Response (%) Compared to Positive Control” value (5-HT1A receptor; [11]) was 78%, the pEC50 (5-HT1A receptor; [8]) was 5.02 and the “Pharmacological activity at 5-HT1A receptor” value (5-HT1A receptor; at approximately 1 to 20 μM) was “agonist”. For the same compound, the “Max Response (%) Compared to Positive Control” value (Cannabinoid receptor 1; [9]) was 111%, the pEC50 (Cannabinoid receptor 1; [6]) was 5.43 and the “Pharmacological activity at cannabinoid receptor 1” value (Cannabinoid receptor 1) was “agonist”. The “Pharmacological activity at cannabinoid receptor 1” value (Cannabinoid receptor 1; [10]) was “fully activates”, the “Max Response (%) Compared to Positive Control” value (5-HT1B receptor; [11]) was 74% and the pEC50 (5-HT1B receptor; [8]) was 5.03. The “Pharmacological activity at 5-HT1B receptor” value (5-HT1B receptor; at approximately 1 to 20 μM) was “agonist”, the “Tissue Factor biomarker change” value (LPS cell system) was “+0.11 log 10” and the VEGFR2 biomarker change (4H cell system) was −0.11 log 10. The “α-SM Actin biomarker change” value (MyoF cell system) was −0.26 log 10, the CXCL8/IL-8 biomarker change (BE3C cell system) was −0.21 log 10 and the CXCL9/MIG biomarker change (BE3C cell system) was −0.60 log 10. It also gave a CXCL10/IP-10 biomarker change (BE3C cell system) of −0.10 log 10, a CXCL11/I-TAC biomarker change (BE3C cell system) of −0.54 log 10 and an HLA-DR biomarker change (BE3C cell system) of −0.63 log 10. The IL-1a biomarker change (BE3C cell system) was −0.19 log 10, the MMP-1 biomarker change (BE3C cell system) was −0.27 log 10 and the MMP-9 biomarker change (BE3C cell system) was −0.34 log 10. It also gave a PAI-1 biomarker change (BE3C cell system) of −0.24 log 10, a tPA biomarker change (BE3C cell system) of −0.43 log 10 and a uPA biomarker change (BE3C cell system) of −0.28 log 10. The uPAR biomarker change (BE3C cell system) was −0.12 log 10, the “B-Cell Proliferation change” value (SAg cell system) was −0.17 log 10 and the E-Selectin biomarker change (SAg cell system) was −0.11 log 10. It also gave a CXCL10/IP-10 biomarker change (KF3CT cell system) of −0.10 log 10, an MCP-1 biomarker change (/IMphg cell system) of −0.25 log 10 and a sIL-10 biomarker change (/IMphg cell system) of −0.13 log 10.
